Like-named read-outs stand apart in the source and are kept apart here. Starred links: 1 amine or outer side, 2 acyl side, 3 side chain; linkers in the order of their positions; H or OH if unused. Positions of bridges follow the written chain, without caps; N, C: chain ends. Non-standard residues stand in square brackets, D forms with d. Residues, ends and D or L forms follow the SMILES beside them. *: point of attachment. Bip(4'-NHCO-C6H4-3-CH2COOH) = N[C@@H](Cc1ccc(-c2ccc(NC(=O)c3cccc(CC(=O)O)c3)cc2)cc1)C(=O)O; Bip(4'-NHCO-C6H4-4-CH2COOH) = N[C@@H](Cc1ccc(-c2ccc(NC(=O)c3ccc(CC(=O)O)cc3)cc2)cc1)C(=O)O; Bip(4'-(3-HOOC-benzamido)) = N[C@@H](Cc1ccc(-c2ccc(NC(=O)c3cccc(C(=O)O)c3)cc2)cc1)C(=O)O; Bip(4'-NH) = O=C([C@H](Cc1ccc(-c2ccc(N[*:3])cc2)cc1)N[*:1])[*:2]; Bip(4'-CONHMe) = CNC(=O)c1ccc(-c2ccc(C[C@H](N)C(=O)O)cc2)cc1; Bip(4'-COOH) = N[C@@H](Cc1ccc(-c2ccc(C(=O)O)cc2)cc1)C(=O)O; Bip(4'-NHAc) = CC(=O)Nc1ccc(-c2ccc(C[C@H](N)C(=O)O)cc2)cc1; Indole3carbonyl(1-CH2COOH) = O=C(O)Cn1cc(C(=O)*)c2ccccc21; dArg(ω-Bn) = N=C(NCCC[C@@H](N)C(=O)O)NCc1ccccc1; Ala(morpholin-4-yl) = N[C@@H](CN1CCOCC1)C(=O)O; Bip = N[C@@H](Cc1ccc(-c2ccccc2)cc1)C(=O)O; Ala(2-furyl) = N[C@@H](Cc1ccco1)C(=O)O; 2Pal = N[C@@H](Cc1ccccn1)C(=O)O; Cha = N[C@@H](CC1CCCCC1)C(=O)O; Chg = N[C@H](C(=O)O)C1CCCCC1; Sar = CNCC(=O)O
Molecular target: TNFα (Homo sapiens, UniProt P01375)
Sequence (P01375 77-233 limits assumed): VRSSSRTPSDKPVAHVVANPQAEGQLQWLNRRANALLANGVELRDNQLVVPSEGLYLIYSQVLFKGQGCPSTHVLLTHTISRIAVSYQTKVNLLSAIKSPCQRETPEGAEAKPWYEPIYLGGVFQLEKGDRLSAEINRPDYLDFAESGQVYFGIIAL
Experiment: TNF-Induced HEK-Blue Assay
Format: cell-based
[1] = HEK-Blue-CD40L cells, NF-kB-driven secreted alkaline phosphatase reporter, TNFα 0.5 ng/ml, 18 h, read-out: TNF induced HEK-Blue assay IC50 value

Row | SMILES | IC50 [1] [nM] | IC50 [nM]
1 | CC(=O)Nc1ccc(-c2ccc(C[C@@H]3NC(=O)[C@H](Cc4ccc(-c5ccccc5)cc4)NC(=O)[C@H](CN4CCOCC4)NC(=O)CSC[C@@H](C(=O)NCC(N)=O)NC(=O)[C@H](CC(C)C)NC(=O)[C@H](Cc4cnc[nH]4)NC(=O)[C@H](C(C)C)NC(=O)[C@@H]4CCCN4C(=O)[C@H](C(C)C)NC(=O)[C@@H](CCCNC(=N)N)NC(=O)[C@H](CC(=O)O)NC(=O)[C@H](Cc4ccco4)NC(=O)CN(C)C3=O)cc2)cc1 [Example 519] ({CH2CO}-[Ala(morpholin-4-yl)][Bip][Bip(4'-NHAc)][Sar][Ala(2-furyl)]D[dR]VPVHLCG-NH2; thioether N-13) | 50 to 200 | 
2 | CC(=O)Nc1ccc(-c2ccc(C[C@@H]3NC(=O)[C@H](Cc4ccc(-c5ccc(C(=O)O)cc5)cc4)NC(=O)[C@H](CN4CCOCC4)NC(=O)CSC[C@@H](C(=O)NCC(N)=O)NC(=O)[C@H](CC(C)C)NC(=O)[C@H](Cc4cnc[nH]4)NC(=O)[C@H](C(C)C)NC(=O)[C@@H]4CCCN4C(=O)[C@H](C(C)C)NC(=O)[C@@H](CCCNC(=N)N)NC(=O)[C@H](CC(=O)O)NC(=O)[C@H](Cc4ccco4)NC(=O)CN(C)C3=O)cc2)cc1 [Example 520] ({CH2CO}-[Ala(morpholin-4-yl)][Bip(4'-COOH)][Bip(4'-NHAc)][Sar][Ala(2-furyl)]D[dR]VPVHLCG-NH2; thioether N-13) | < 50 | 
3 | CC[C@H](C)[C@@H]1NC(=O)[C@@H](CCCNC(=N)N)NC(=O)[C@H](CC(=O)O)NC(=O)[C@H](Cc2ccccn2)NC(=O)CN(C)C(=O)[C@H](Cc2ccc(-c3ccc(NC(C)=O)cc3)cc2)NC(=O)[C@H](Cc2ccc(-c3ccccc3)cc2)NC(=O)[C@H](CN2CCOCC2)NC(=O)CSC[C@@H](C(=O)NCC(N)=O)NC(=O)[C@H](CC(C)C)NC(=O)[C@H](Cc2cnc[nH]2)NC(=O)[C@H](C(C)C)NC(=O)[C@@H]2CCCN2C1=O [Example 522] ({CH2CO}-[Ala(morpholin-4-yl)][Bip][Bip(4'-NHAc)][Sar][2Pal]D[dR]IPVHLCG-NH2; thioether N-13) | < 50 | 
4 | CC(=O)Nc1ccc(-c2ccc(C[C@@H]3NC(=O)[C@H](Cc4ccc(-c5ccccc5)cc4)NC(=O)[C@H](CN4CCOCC4)NC(=O)CSC[C@@H](C(=O)NCC(N)=O)NC(=O)[C@H](CC(C)C)NC(=O)[C@H](Cc4c[nH]cn4)NC(=O)[C@H](C4CCCCC4)NC(=O)[C@@H]4CCCN4C(=O)[C@H](C(C)C)NC(=O)[C@@H](CCCNC(=N)N)NC(=O)[C@H](CC(=O)O)NC(=O)[C@H](Cc4ccco4)NC(=O)CN(C)C3=O)cc2)cc1 [Example 524] ({CH2CO}-[Ala(morpholin-4-yl)][Bip][Bip(4'-NHAc)][Sar][Ala(2-furyl)]D[dR]VP[Chg]HLCG-NH2; thioether N-13) | 50 to 200 | 
5 | CC(C)C[C@@H]1NC(=O)[C@H](Cc2cnc[nH]2)NC(=O)[C@H](C(C)C)NC(=O)[C@@H]2CCCN2C(=O)[C@H](C(C)C)NC(=O)[C@@H](CCCNC(=N)N)NC(=O)[C@H](CC(=O)O)NC(=O)[C@H](Cc2cnc[nH]2)NC(=O)CN(C)C(=O)[C@H](Cc2ccc(-c3ccc(NC(=O)c4ccc(CC(=O)O)cc4)cc3)cc2)NC(=O)[C@H](Cc2ccc(-c3ccccc3)cc2)NC(=O)[C@H](CC2CCCCC2)NC(=O)CSC[C@@H](C(=O)NCC(N)=O)NC1=O [Example 526] ({CH2CO}-[Cha][Bip][Bip(4'-NHCO-C6H4-4-CH2COOH)][Sar]HD[dR]VPVHLCG-NH2; thioether N-13) | < 50 | 
6 | CC[C@H](C)[C@@H]1NC(=O)[C@@H](CCCNC(=N)N)NC(=O)[C@H](CC(=O)O)NC(=O)[C@H](Cc2cnc[nH]2)NC(=O)CN(C)C(=O)[C@H](Cc2ccc(-c3ccc(NC(=O)c4cccc(CC(=O)O)c4)cc3)cc2)NC(=O)[C@H](Cc2ccc(-c3ccc(C(=O)NC)cc3)cc2)NC(=O)[C@H](CC2CCCCC2)NC(=O)CSC[C@@H](C(=O)NCC(N)=O)NC(=O)[C@H](CC(C)C)NC(=O)[C@H](Cc2cnc[nH]2)NC(=O)[C@H](C(C)C)NC(=O)[C@@H]2CCCN2C1=O [Example 527] ({CH2CO}-[Cha][Bip(4'-CONHMe)][Bip(4'-NHCO-C6H4-3-CH2COOH)][Sar]HD[dR]IPVHLCG-NH2; thioether N-13) | < 50 | 
7 | CC[C@H](C)[C@@H]1NC(=O)[C@@H](CCCNC(=N)N)NC(=O)[C@H](CC(=O)O)NC(=O)[C@H](Cc2cnc[nH]2)NC(=O)CN(C)C(=O)[C@H](Cc2ccc(-c3ccc(NC(=O)c4ccc(CC(=O)O)cc4)cc3)cc2)NC(=O)[C@H](Cc2ccc(-c3ccc(C(=O)NC)cc3)cc2)NC(=O)[C@H](CC2CCCCC2)NC(=O)CSC[C@@H](C(=O)NCC(N)=O)NC(=O)[C@H](CC(C)C)NC(=O)[C@H](Cc2cnc[nH]2)NC(=O)[C@H](C(C)C)NC(=O)[C@@H]2CCCN2C1=O [Example 528] ({CH2CO}-[Cha][Bip(4'-CONHMe)][Bip(4'-NHCO-C6H4-4-CH2COOH)][Sar]HD[dR]IPVHLCG-NH2; thioether N-13) | < 50 | 
8 | CC[C@H](C)[C@@H]1NC(=O)[C@@H](CCCNC(=N)N)NC(=O)[C@H](CC(=O)O)NC(=O)[C@H](Cc2cnc[nH]2)NC(=O)CN(C)C(=O)[C@H](Cc2ccc(-c3ccc(NC(=O)c4cccc(C(=O)O)c4)cc3)cc2)NC(=O)[C@H](Cc2ccc(-c3ccc(C(=O)O)cc3)cc2)NC(=O)[C@H](CC2CCCCC2)NC(=O)CSC[C@@H](C(=O)NCC(N)=O)NC(=O)[C@H](CC(C)C)NC(=O)[C@H](Cc2cnc[nH]2)NC(=O)[C@H](C(C)C)NC(=O)[C@@H]2CCCN2C1=O [Example 530] ({CH2CO}-[Cha][Bip(4'-COOH)][Bip(4'-(3-HOOC-benzamido))][Sar]HD[dR]IPVHLCG-NH2; thioether N-13) | < 50 | 
9 | CC(C)C[C@@H]1NC(=O)[C@H](Cc2ccc(O)cc2)NC(=O)[C@H](C(C)C)NC(=O)[C@@H]2CCCN2C(=O)[C@H](C(C)C)NC(=O)[C@@H](CCCNC(=N)NCc2ccccc2)NC(=O)[C@H](CC(=O)O)NC(=O)[C@@H]2CCCN2C(=O)CN(C)C(=O)[C@H](Cc2ccc(-c3ccc(NC(=O)c4cn(CC(=O)O)c5ccccc45)cc3)cc2)NC(=O)[C@H](Cc2ccc(-c3ccccc3)cc2)NC(=O)[C@H](CN2CCOCC2)NC(=O)CSC[C@@H](C(=O)NCC(N)=O)NC1=O [Example 531] ({CH2CO}-[Ala(morpholin-4-yl)][Bip][Bip(4'-NH)](Indole3carbonyl(1-CH2COOH))[Sar]PD[dArg(ω-Bn)]VPVYLCG-NH2; thioether N-13) |  | < 50
10 | CC[C@H](C)[C@@H]1NC(=O)[C@@H](CCCNC(=N)NCc2ccccc2)NC(=O)[C@H](CC(=O)O)NC(=O)[C@@H]2CCCN2C(=O)CN(C)C(=O)[C@H](Cc2ccc(-c3ccc(NC(=O)c4cn(CC(=O)O)c5ccccc45)cc3)cc2)NC(=O)[C@H](Cc2ccc(-c3ccccc3)cc2)NC(=O)[C@H](CN2CCOCC2)NC(=O)CSC[C@@H](C(=O)NCC(N)=O)NC(=O)[C@H](CC(C)C)NC(=O)[C@H](Cc2cnc[nH]2)NC(=O)[C@H](C(C)C)NC(=O)[C@@H]2CCCN2C1=O [Example 533] ({CH2CO}-[Ala(morpholin-4-yl)][Bip][Bip(4'-NH)](Indole3carbonyl(1-CH2COOH))[Sar]PD[dArg(ω-Bn)]IPVHLCG-NH2; thioether N-13) |  | < 50

Source: patent US20250145665A1, “MACROCYCLIC PEPTIDES USEFUL AS MODULATORS OF TNF ALPHA” (Bristol-Myers Squibb Company, priority 2023, published 2025)
